How the values were obtained:
[1] = Determination of the hygroscopicity (gravimetric water absorption in desiccator at constant humidity); format: physicochemical; settings: 22±2° C., relative humidity of 55%; for Relative water absorption: determined daily over 12 days
Experimental: In order to determine the hygroscopicity, solid samples were stored in 25 ml glass beakers in a desiccator under constant humidity. […] The water absorption of the samples was determined gravimetrically once daily over a period of 12 days as the difference in mass (see FIG. 14).
Two spray-dried powders were tested as comparison with crystallisate samples of the crystallisates of the α, β and γ crystal modification.
A DTPMP synthesis product having the quality parameters from Table 4 used as the starting slurry for the crystallisation was spray dried with a Büchi-Mini Spray Dryer B-290.

[2] = Bulk density of the samples used for the hygroscopicity test; format: physicochemical
[3] = about 55% humidity at 22° C.
Experimental: In a further test, the influence of the degree of neutralisation of the phosphonic acid DTPMP on the hygroscopicity was studied, on account of its industrial relevance, especially the sodium salts. To that end, 10 g of sample were stored in four crystallisation dishes of equal size in a desiccator under constant humidity. Via a saturated magnesium nitrate solution with precipitate (about ⅓ precipitate in ⅔ of the solution), about 55% by weight humidity is established at 22° C. The water absorption of the samples was determined gravimetrically twice daily over a period of 22 days as the difference in mass (see FIG. 15).
A crystallisate of the α crystal modification with a foreign acid content of 3.8% by weight chloride and in total 6.6% by weight H3PO4 and H3PO3 per 100% by mass DTPMP was dissolved again. Portions were neutralised with sodium hydroxide solution to pH (1% strength)=1.7 for the Na0.5-DTPMP salt, pH (1% strength)=2.1 for the Na3-DTPMP salt and pH (1% strength)=6.6 for the Na7-DTPMP salt.

[4] = Solubility of DTPMP at room temperature in dependence on the concentration of sodium ions and chloride ions; format: physicochemical; settings: chloride ions in the range of from 1 to 4% by mass, room temperature (FIG. 13)
Source text: FIG. 13: Solubility of DTPMP at room temperature in dependence on the concentration of sodium ions and chloride ions in % by mass.

| SMILES | Relative water absorption [1] [% by mass/day] | Bulk density [2] [g/mL] | further results |
| --- | --- | --- | --- |
| O=P(O)(O)CN(CCN(CP(=O)(O)O)CP(=O)(O)O)CCN(CP(=O)(O)O)CP(=O)(O)O [Crystal form β, purified quality, diethylenetriamine penta(methylenephosphonic acid)] | 0.04 | 0.49 | Hygroscopicity / water absorption capacity (in words) ([1]; listed as crystal modification β): consistently low water absorption |
| O=P(O)(O)CN(CCN(CP(=O)(O)O)CP(=O)(O)O)CCN(CP(=O)(O)O)CP(=O)(O)O [Crystal form γ, purified quality, diethylenetriamine penta(methylenephosphonic acid)] | 0.003 | 0.59 | Hygroscopicity / water absorption capacity (in words) [1]: by far the lowest hygroscopicity; Hygroscopicity / water absorption capacity (in words) ([1]; listed as crystal modification γ): consistently low water absorption |
| O=P(O)(O)CN(CCN(CP(=O)(O)O)CP(=O)(O)O)CCN(CP(=O)(O)O)CP(=O)(O)O [amorphous powder from spray drying of an unpurified DTPMP sy] [reference compound] | 0.40 | 0.27 | Hygroscopicity / water absorption capacity (in words) ([1]; listed as Spray-dried powders of the unpurified DTPMP synthesis product): greatest hygroscopicity |
| O=P(O)(O)CN(CCN(CP(=O)(O)O)CP(=O)(O)O)CCN(CP(=O)(O)O)CP(=O)(O)O [Crystal form α, purified quality, diethylenetriamine penta(methylenephosphonic acid)] | 0.03 | 0.36 | Hygroscopicity / water absorption capacity (in words) ([1]; listed as crystal modification α): consistently low water absorption |
| O=P(O)(O)CN(CCN(CP(=O)(O)O)CP(=O)(O)O)CCN(CP(=O)(O)O)CP(=O)(O)O [DTPMP acid, diethylenetriamine penta(methylenephosphonic acid)] | – | – | Appearance of the sample after 22 days [3]: still recognisable |
| O=P(O)(O)CN(CCN(CP(=O)(O)O)CP(=O)(O)O)CCN(CP(=O)(O)O)CP(=O)(O)O [DTPMP, diethylenetriamine penta(methylenephosphonic acid)] | – | – | Solubility of DTPMP (in words) [4]: further reduction in solubility |
| O=P([O-])([O-])CN(CCN(CCN(CP(=O)([O-])[O-])CP(=O)([O-])O)CP(=O)([O-])O)CP(=O)([O-])O.[Na+].[Na+].[Na+].[Na+].[Na+].[Na+].[Na+] [Na7 salt] | – | – | Appearance of the sample after 22 days [3]: liquefied; Appearance of the sample after half the test time ([3]; after only half the test time (of 22 days)): visibly contracting to form a block |
| O=P(O)(O)CN(CCN(CP(=O)(O)O)CP(=O)(O)O)CCN(CP(=O)(O)O)CP(=O)(O)O [amorphous powder from spray drying of a DTPMP acid purified ] [reference compound] | 0.29 | 0.27 | Hygroscopicity / water absorption capacity (in words) ([1]; listed as DTPMP quality purified by recrystallisation and spray dried): lower water absorption capacity than the unpurified crude product |

From patent US10590153B2, “Process for producing crystalline DTPMP” (Zschimmer & Schwarz Mohsdorf GmbH & Co. KG, priority 2014, dated 2020)
